Target: FLT3 receptor tyrosine kinase (Homo sapiens) (UniProt P36888)
Assay: Inhibition of Flt3

Chain of FLT3 receptor tyrosine kinase (Homo sapiens) (P36888 whole entry, looked up): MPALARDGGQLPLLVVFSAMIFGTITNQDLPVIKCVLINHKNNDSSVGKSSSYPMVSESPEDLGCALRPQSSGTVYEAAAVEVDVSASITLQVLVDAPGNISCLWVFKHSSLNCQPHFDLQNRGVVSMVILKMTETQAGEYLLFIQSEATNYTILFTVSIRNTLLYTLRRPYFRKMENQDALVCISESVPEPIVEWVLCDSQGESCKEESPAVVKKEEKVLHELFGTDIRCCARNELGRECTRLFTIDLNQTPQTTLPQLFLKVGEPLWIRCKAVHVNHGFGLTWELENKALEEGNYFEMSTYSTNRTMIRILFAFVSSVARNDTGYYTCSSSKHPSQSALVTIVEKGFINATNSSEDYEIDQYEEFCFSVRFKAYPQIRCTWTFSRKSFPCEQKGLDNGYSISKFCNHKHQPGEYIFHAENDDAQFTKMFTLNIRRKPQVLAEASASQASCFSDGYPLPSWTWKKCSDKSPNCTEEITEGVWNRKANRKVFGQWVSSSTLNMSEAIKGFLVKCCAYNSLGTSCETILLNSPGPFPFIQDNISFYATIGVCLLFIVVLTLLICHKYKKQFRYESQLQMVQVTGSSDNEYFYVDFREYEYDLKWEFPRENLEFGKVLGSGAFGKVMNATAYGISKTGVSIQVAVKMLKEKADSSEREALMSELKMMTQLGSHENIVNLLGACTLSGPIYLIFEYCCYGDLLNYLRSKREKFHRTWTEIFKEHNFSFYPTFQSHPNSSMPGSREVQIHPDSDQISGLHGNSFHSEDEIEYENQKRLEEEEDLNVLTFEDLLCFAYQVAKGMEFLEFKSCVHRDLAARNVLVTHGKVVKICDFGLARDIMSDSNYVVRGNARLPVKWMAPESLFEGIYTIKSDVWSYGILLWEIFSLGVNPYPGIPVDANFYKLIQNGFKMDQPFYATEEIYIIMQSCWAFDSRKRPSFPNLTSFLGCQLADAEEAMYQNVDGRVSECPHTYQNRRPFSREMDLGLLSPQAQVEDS

Cc1cccc(C)c1/C=C/n1cnc2c(Nc3ccc(P(C)(C)=O)cc3)ncnc21 [AP24149] gave an IC50 of over 1 µM.

— BindingDB's records for doi:10.1016/j.bmcl.2008.06.042 (Ariad Pharmaceuticals, 2008)
